# Values quoted from earlier work in US11858951B2, “Boronic acid derivatives” (Merck Patent GmbH, priority 2017, dated 2024).
# Target: LMP7 subunit of the immunoproteasome (Homo sapiens, UniProt P28062)
# Conditions: background, Singh et al 2011; cited from earlier work
compound,measurement,value
CC1=C(C(=O)N[C@H](C)C(=O)N[C@@H](Cc2c[nH]c3ccccc23)C(=O)N[C@@H](Cc2ccccc2)C(=O)[C@@]2(C)CO2)Cc2ccccc21 [PR-924],selectivity for the LMP7 subunit of the immunoproteasome,100 fold
